Assay results reported in paper PMC9675574 (JCI Insight, 2022).
Where two headings read alike, the source gives them in different places.

Experiments:
Format in all cases: biochemical
[1] = target: mouse trypsin isoform T7 (cationic trypsin) (Mus musculus, UniProt Q9CPN9); settings: GPR-pNA, 24°C
Protocol: (§1) Recombinant human and mouse trypsinogens were expressed in Escherichia coli BL21(DE3) (Invitrogen), refolded in vitro, and purified by ecotin affinity chromatography (Pharmacia FPLC), according to published protocols ([60], [63], [64]). Sulfated human trypsinogens were purified from archived samples of human pancreatic juice, as described previously, with minor modifications ([65], [66]). Briefly, 50 mg freeze-dried pancreatic juice was dissolved in 2 mL 10 mM HCl, clarified by centrifugation (21,000g, 5 minutes, 4°C), and loaded onto a MonoQ 5/50 GL column equilibrated with 20 mM Tris-HCl (pH 8.0). Proteins were eluted with a 0–0.5 M NaCl gradient at 1 mL/min flow rate for 30 minutes. The fractions containing the cationic and anionic trypsinogens were further purified with ecotin affinity chromatography. The concentration of trypsinogen preparations was estimated from their UV absorbance at 280 nm using the extinction coefficients reported previously for mouse trypsinogens ([64]) and 37,525, 38,890, and 41,535/M/cm for human cationic trypsinogen (PRSS1), anionic trypsinogen (PRSS2), and mesotrypsinogen (PRSS3), respectively. To activate trypsinogen to trypsin, approximately 1 μM solution was incubated at 37°C with 28.2 ng/mL human enterokinase (final concentration) in 0.1 M Tris-HCl (pH 8.0), 10 mM CaCl2, and 0.05% Tween 20 for 1 hour. The activation reaction was followed by measuring trypsin activity: 2 μL trypsin was diluted in 48 μL assay buffer [0.1 M Tris-HCl (pH 8.0), 1 mM CaCl2, and 0.05% Tween 20], and 150 μL of 200 μM GPR-pNA trypsin substrate (in assay buffer) was added. Substrate cleavage resulting in the release of the yellow p-nitroaniline was monitored for 1 minute in a Spectramax Plus 384 microplate reader at 405 nm.
(§2) Michaelis-Menten kinetic parameters of trypsin isoforms were determined with the chromogenic substrate GPR-pNA at 24°C. The trypsin concentration was 1 nM and the substrate concentration was varied typically between 1.56 and 200 μM in a final volume of 200 μL assay buffer. The substrate concentration range was 3.1–400 μM for mouse trypsin isoform T7 and 0.4–50 μM for mouse trypsin isoform T20. Km and kcat values were calculated from hyperbolic fits to plots of reaction velocity versus substrate concentration.
(§3) Michaelis-Menten kinetic parameters were then measured after adding 100 μL trypsin substrate, as described above. […] To determine the Ki, the Km values were plotted as a function of the inhibitor concentration, and the Ki was calculated by dividing the y axis intercept with the slope of the linear fit. This value corresponds to the negative of the x axis intercept. Alternatively, the substrate saturation curves obtained in the absence and presence of the increasing inhibitor concentrations were globally fitted to the competitive inhibition equation y = vmax × (x/[KmObs+ x]), where y is the reaction velocity, vmax is the maximal velocity, x is the substrate concentration, and KmObs = Km × (1 + [I]/Ki), where [I] is the inhibitor concentration. Experiments were performed 3 times and each experiment was analyzed separately. […] Kinetic analysis was performed with the Prism 8 program (GraphPad).

[2] = target: T1, human trypsin isoform PRSS2 (anionic trypsin), recombinant (Homo sapiens, UniProt P07478); assay: Competitive inhibition kinetics of trypsin, GPR-pNA substrate; settings: for Km / kcat: GPR-pNA, 24°C; for Ki: mean ± SD, n = 3
T1 construct: made in house; host or cells: Escherichia coli BL21(DE3)
Protocol: as §1, §2, §3

[3] = target: T2, mouse trypsin isoform T20 (anionic trypsin) (Mus musculus, UniProt P07146); assay: as above; settings: for Km / kcat: GPR-pNA, 24°C; for Ki: mean ± SD, n = 3
T2 construct: made in house; host or cells: Escherichia coli BL21(DE3)
T2 sequence (P07146 24-246): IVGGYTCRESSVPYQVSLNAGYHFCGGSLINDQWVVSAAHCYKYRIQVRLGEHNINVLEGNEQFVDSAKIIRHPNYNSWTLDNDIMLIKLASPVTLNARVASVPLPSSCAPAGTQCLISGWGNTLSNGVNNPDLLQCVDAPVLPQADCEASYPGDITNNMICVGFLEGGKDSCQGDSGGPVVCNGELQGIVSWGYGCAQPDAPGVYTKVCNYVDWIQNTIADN
Protocol: as §1, §2, §3

[4] = target: T3, sulfated human trypsin PRSS1-SO4 purified from pancreatic juice (Homo sapiens, UniProt P07477); assay: as above; settings: for Km / kcat: GPR-pNA, 24°C; for Ki: mean ± SD, n = 3
T3 construct: from tissue; host or cells: human pancreatic juice
Protocol: as §1, §2, §3

[5] = target: T4, human trypsin isoform PRSS3 (mesotrypsin) (Homo sapiens, UniProt P35030); assay: as above; settings: for kcat: GPR-pNA, 24°C; for Ki: mean ± SD, n = 3
T4 construct: made in house; host or cells: Escherichia coli BL21(DE3)
T4 sequence (P35030 81-304 limits assumed): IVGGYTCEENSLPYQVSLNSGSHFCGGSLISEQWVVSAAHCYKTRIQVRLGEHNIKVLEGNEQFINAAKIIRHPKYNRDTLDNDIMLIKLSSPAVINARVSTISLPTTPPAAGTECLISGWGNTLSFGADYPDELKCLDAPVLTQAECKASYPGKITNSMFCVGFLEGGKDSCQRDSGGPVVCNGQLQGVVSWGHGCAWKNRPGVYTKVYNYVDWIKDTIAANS
Protocol: as §1, §2, §3

[6] = target: T5, human trypsin isoform PRSS1 (cationic trypsin), recombinant (Homo sapiens, UniProt P07477); assay: as above; settings: for Km / kcat: GPR-pNA, 24°C; for Ki: mean ± SD, n = 3
T5 construct: made in house; host or cells: Escherichia coli BL21(DE3)
Protocol: as §1, §2, §3

[7] = target: T6, sulfated human trypsin PRSS2-SO4 purified from pancreatic juice (Homo sapiens, UniProt P07478); assay: as above; settings: for Km / kcat: GPR-pNA, 24°C; for Ki: mean ± SD, n = 3
T6 construct: from tissue; host or cells: human pancreatic juice
Protocol: as §1, §2, §3

Sequence of mouse trypsin isoform T7 (cationic trypsin) (Q9CPN9 entry or part of it): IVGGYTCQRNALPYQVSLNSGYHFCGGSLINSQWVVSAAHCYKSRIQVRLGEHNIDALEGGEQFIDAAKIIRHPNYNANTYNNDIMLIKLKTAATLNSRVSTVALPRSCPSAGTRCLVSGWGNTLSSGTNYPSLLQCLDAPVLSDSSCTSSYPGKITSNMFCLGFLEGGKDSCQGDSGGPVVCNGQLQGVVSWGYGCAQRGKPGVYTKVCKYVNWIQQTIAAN
T6 sequence (P07478 24-247): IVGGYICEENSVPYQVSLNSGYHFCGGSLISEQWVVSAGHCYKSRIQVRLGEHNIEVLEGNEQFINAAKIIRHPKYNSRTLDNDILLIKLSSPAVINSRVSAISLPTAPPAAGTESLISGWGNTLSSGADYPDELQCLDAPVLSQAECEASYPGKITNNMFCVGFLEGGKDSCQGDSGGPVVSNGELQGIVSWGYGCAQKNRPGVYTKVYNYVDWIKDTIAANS
T1 sequence (P07478 24-247): as above

Compound `[H]/N=C(/N)c1ccc(NCc2nc3cc(C(=O)N(CCC(=O)O)c4ccccn4)ccc3n2C)cc1` [dabigatran] has a kcat ([1]; 100 nM dabigatran) of 47.5 ± 2 per second, a kcat ([1]; 150 nM dabigatran) of 50.1 ± 1.5 per second and a kcat ([1]; 200 nM dabigatran) of 49.3 ± 1.7 per second. For the same compound, the Km ([2]; 25 nM dabigatran) was 23 ± 1.3 µM, the kcat ([2]; 25 nM dabigatran) was 90.6 ± 2.6 per second and the Km ([2]; 50 nM dabigatran) was 37.6 ± 0.6 µM. The kcat ([2]; 50 nM dabigatran) was 89.1 ± 1.7 per second, the Km ([2]; 75 nM dabigatran) was 46.8 ± 1.5 µM and the kcat ([2]; 75 nM dabigatran) was 90.2 ± 2.3 per second. For the same compound, the Km ([2]; 100 nM dabigatran) was 61.1 ± 6.1 µM, the kcat ([2]; 100 nM dabigatran) was 87.5 ± 4.4 per second and the Ki ([2]; Ki dabigatran, Global fit) was 0.0141 ± 0.0011 µM. It also gave a Ki ([2]; Ki dabigatran, Individual fit) of 0.0179 ± 0.0033 µM, a Km ([3]; 50 nM dabigatran) of 9.5 ± 1.3 µM and a kcat ([3]; 50 nM dabigatran) of 52 ± 4 per second. For the same compound, the Km ([3]; 100 nM dabigatran) was 19.5 ± 0.5 µM, the kcat ([3]; 100 nM dabigatran) was 51.1 ± 1.7 per second and the Km ([3]; 150 nM dabigatran) was 22.5 ± 2.5 µM. For the same compound, the kcat ([3]; 150 nM dabigatran) was 48.7 ± 3.3 per second, the Km ([3]; 200 nM dabigatran) was 28.5 ± 2.2 µM and the kcat ([3]; 200 nM dabigatran) was 50 ± 6.3 per second. The Ki ([3]; Ki dabigatran, Global fit) was 0.0226 ± 0.0007 µM, the Km ([4]; 25 nM dabigatran) was 21.4 ± 1.5 µM and the kcat ([4]; 25 nM dabigatran) was 101 ± 2.3 per second. For the same compound, the Km ([4]; 50 nM dabigatran) was 32.7 ± 3 µM, the kcat ([4]; 50 nM dabigatran) was 105.5 ± 5.1 per second and the Km ([4]; 75 nM dabigatran) was 42.8 ± 7.8 µM. It also gave a kcat ([4]; 75 nM dabigatran) of 103.2 ± 4.2 per second, a Km ([4]; 100 nM dabigatran) of 57 ± 2.1 µM and a kcat ([4]; 100 nM dabigatran) of 104.7 ± 2.1 per second. For the same compound, the Ki ([4]; Ki dabigatran, Global fit) was 0.0233 ± 0.002 µM, the kcat ([5]; 50 nM dabigatran) was 214.6 ± 4.9 per second and the kcat ([5]; 100 nM dabigatran) was 215.5 ± 4.6 per second. The kcat ([5]; 150 nM dabigatran) was 217.5 ± 10.8 per second, the kcat ([5]; 200 nM dabigatran) was 220.5 ± 4.1 per second and the Ki ([5]; Ki dabigatran, Global fit) was 0.0516 ± 0.0021 µM. For the same compound, the Ki ([5]; Ki dabigatran, Individual fit) was 0.0351 ± 0.0024 µM, the Km ([6]; 25 nM dabigatran) was 31.3 ± 3.6 µM and the kcat ([6]; 25 nM dabigatran) was 90.8 ± 2.8 per second. For the same compound, the Km ([6]; 50 nM dabigatran) was 50.2 ± 2.5 µM, the kcat ([6]; 50 nM dabigatran) was 91.6 ± 4.8 per second and the Km ([6]; 75 nM dabigatran) was 71.1 ± 4.2 µM. The kcat ([6]; 75 nM dabigatran) was 95 ± 2.3 per second, the Km ([6]; 100 nM dabigatran) was 88.7 ± 3.1 µM and the kcat ([6]; 100 nM dabigatran) was 99.8 ± 3.3 per second. It also gave a Ki ([6]; Ki dabigatran, Global fit) of 0.0282 ± 0.0045 µM, a Ki ([6]; Ki dabigatran, Individual fit) of 0.021 ± 0.0023 µM and a Km ([7]; 25 nM dabigatran) of 13 ± 0.5 µM. For the same compound, the kcat ([7]; 25 nM dabigatran) was 63.4 ± 0.4 per second, the Km ([7]; 50 nM dabigatran) was 23.5 ± 1.3 µM and the kcat ([7]; 50 nM dabigatran) was 66.8 ± 1.6 per second. The Km ([7]; 75 nM dabigatran) was 31.5 ± 0.4 µM, the kcat ([7]; 75 nM dabigatran) was 63.8 ± 0.9 per second and the Km ([7]; 100 nM dabigatran) was 42.4 ± 3.5 µM. For the same compound, the kcat ([7]; 100 nM dabigatran) was 67.2 ± 1.9 per second, the Ki ([7]; Ki dabigatran, Global fit) was 0.0103 ± 0.0005 µM and the Ki ([7]; Ki dabigatran, Individual fit) was 0.01 ± 0.0032 µM.

For `N=C(N)c1ccccc1` [benzamidine], the kcat ([1]; 12.5 μM benzamidine) was 125.4 ± 2.7 per second, the kcat ([1]; 25 μM benzamidine) was 125.5 ± 3.5 per second and the kcat ([1]; 37.5 μM benzamidine) was 135 ± 3.9 per second. For the same compound, the kcat ([1]; 50 μM benzamidine) was 127.9 ± 7.5 per second, the kcat ([2]; 25 μM benzamidine) was 78.7 ± 1.7 per second and the kcat ([2]; 50 μM benzamidine) was 78.4 ± 1.8 per second. For the same compound, the kcat ([2]; 75 μM benzamidine) was 82.1 ± 2.4 per second, the kcat ([2]; 100 μM benzamidine) was 78.3 ± 4.5 per second and the Ki ([2]; Ki benzamidine, Global fit) was 8.9 ± 0.7 µM. It also gave a Ki ([2]; Ki benzamidine, Individual fit) of 8.6 ± 2.2 µM, a kcat ([3]; 12.5 μM benzamidine) of 65 ± 1 per second and a kcat ([3]; 25 μM benzamidine) of 62.1 ± 1.8 per second. For the same compound, the kcat ([3]; 37.5 μM benzamidine) was 64.7 ± 2.1 per second, the kcat ([3]; 50 μM benzamidine) was 65.6 ± 2.1 per second and the Ki ([3]; Ki benzamidine, Global fit) was 7.6 ± 0.5 µM. It also gave a Ki ([3]; Ki benzamidine, Individual fit) of 6.9 ± 1.1 µM, a kcat ([4]; 12.5 μM benzamidine) of 104.1 ± 2.8 per second and a kcat ([4]; 25 μM benzamidine) of 112.1 ± 4.9 per second. The kcat ([4]; 37.5 μM benzamidine) was 108.4 ± 5.3 per second, the kcat ([4]; 50 μM benzamidine) was 113.6 ± 7.2 per second and the Ki ([4]; Ki benzamidine, Global fit) was 10.5 ± 0.9 µM. For the same compound, the Ki ([4]; Ki benzamidine, Individual fit) was 8.3 ± 2.2 µM, the kcat ([5]; 25 μM benzamidine) was 211.9 ± 8.6 per second and the kcat ([5]; 50 μM benzamidine) was 214.2 ± 4.7 per second. The kcat ([5]; 75 μM benzamidine) was 201.3 ± 8 per second, the kcat ([5]; 100 μM benzamidine) was 205.7 ± 6.3 per second and the Ki ([5]; Ki benzamidine, Global fit) was 13.3 ± 0.8 µM. The Ki ([5]; Ki benzamidine, Individual fit) was 15.5 ± 2.3 µM, the kcat ([6]; 25 μM benzamidine) was 134.8 ± 1.7 per second and the kcat ([6]; 50 μM benzamidine) was 121 ± 3.3 per second. It also gave a kcat ([6]; 75 μM benzamidine) of 136.3 ± 9.2 per second, a kcat ([6]; 100 μM benzamidine) of 143.2 ± 8.1 per second and a Ki ([6]; Ki benzamidine, Global fit) of 22.5 ± 4 µM. For the same compound, the Ki ([6]; Ki benzamidine, Individual fit) was 15.7 ± 4.7 µM, the kcat ([7]; 12.5 μM benzamidine) was 64.8 ± 1.6 per second and the kcat ([7]; 25 μM benzamidine) was 64.3 ± 1.4 per second. For the same compound, the kcat ([7]; 37.5 μM benzamidine) was 64.5 ± 1.5 per second, the kcat ([7]; 50 μM benzamidine) was 69.3 ± 0.3 per second and the Ki ([7]; Ki benzamidine, Global fit) was 4.2 ± 0.7 µM. The Ki ([7]; Ki benzamidine, Individual fit) was 3.3 ± 0.5 µM.
